The values that follow come from ChEMBL document CHEMBL5726992, “CGRP receptor antagonists” (2019).

The target of the assay is Calcitonin-gene-related peptide receptor, CALCRL/RAMP1 (Homo sapiens, UniProt O60894+Q16602). Description: Radioligand Binding Assay: Human CGRP receptors expressed (consisting of CRLR and RAMP1) in insect Sf21 cell membrane homogenates were re-suspended in the binding buffer (10 mM HEPES, pH 7.4, 5 mM MgCl2, 0.2% BSA) to a final assay concentration of 0.6 μg protein per well. Saturation isotherms were determined by the addition of various concentrations of 3H-telcagepant (Ho et al, The Lancet, 2008, 372, 2115) (in a total reaction volume of 250 μL) for 60 min at rt. At the end of the incubation, membranes were filtered onto a unifilter, a 96-well white microplate with bonded GF/B filter pre-incubated with 0.5% PEI, with a Tomtec cell harvester and washed 5 times with distilled water. Non-specific binding (NSB) was measured in the presence of 10 nM MK-3207 hydrochloride (CAS No. 957116-20-0). Radioactivity on the filter was counted (1 min) on a microbeta counter after addition of 50 μL of scintillation fluid. For inhibition experiments, membranes were incubated with 0.5 nM 3H-telcagepant and 10 concentrations of the inhibitory compound (0.001-10 μM). IC50 values were derived from the inhibition curve and the affinity constant (Ki) values were calculated using the Cheng-Prussoff equation (Cheng et al, Biochem. Pharmacol. 1973, 22, 3099-3108).
Chain of Calcitonin-gene-related peptide receptor, CALCRL/RAMP1 (O60894 whole entry): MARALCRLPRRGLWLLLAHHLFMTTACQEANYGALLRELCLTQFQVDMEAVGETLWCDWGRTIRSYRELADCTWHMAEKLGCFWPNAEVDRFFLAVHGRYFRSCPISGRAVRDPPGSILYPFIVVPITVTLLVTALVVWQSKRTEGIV
Chain of Calcitonin-gene-related peptide receptor, CALCRL/RAMP1 (Q16602 whole entry): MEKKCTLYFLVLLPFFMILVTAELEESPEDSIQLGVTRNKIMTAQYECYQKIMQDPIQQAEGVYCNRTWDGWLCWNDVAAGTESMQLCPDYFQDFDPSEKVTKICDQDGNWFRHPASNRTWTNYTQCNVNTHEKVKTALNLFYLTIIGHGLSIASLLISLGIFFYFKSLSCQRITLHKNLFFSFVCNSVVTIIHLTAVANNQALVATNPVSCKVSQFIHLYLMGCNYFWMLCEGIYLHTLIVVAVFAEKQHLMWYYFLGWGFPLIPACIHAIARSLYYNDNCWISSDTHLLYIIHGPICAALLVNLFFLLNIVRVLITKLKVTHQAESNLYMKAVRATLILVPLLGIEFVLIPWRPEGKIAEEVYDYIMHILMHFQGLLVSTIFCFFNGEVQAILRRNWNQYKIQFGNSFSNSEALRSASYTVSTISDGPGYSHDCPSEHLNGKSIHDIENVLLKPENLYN

For orientation: Ki means the equilibrium dissociation constant of an inhibitor or competing ligand from its target. As to `Cc1cc(C[C@@H](NC(=O)N2CCC(n3c(=O)[nH]c4ncccc43)CC2)C(=O)N[C@@H](CC2CCN(CCN(C)C)CC2)C(=O)N2CCN(c3ccncc3)CC2)cc2cn[nH]c12`, the Ki is 0.025 nM.
